# Article PMC9310519, “Small-molecule inhibitor of intestinal anion exchanger SLC26A3 for treatment of hyperoxaluria and nephrolithiasis” (JCI Insight, 2022)
# pIC50: −log10 of the molar value.
# Columns and labels:
# SLC26A3 (human) = SLC26A3 (human) (Homo sapiens, UniProt P40879); assay: YFP halide-sensor anion transport assay in HEK293 cells expressing human SLC26A3; type: cell-based
# SLC26A3 (murine) = SLC26A3 (murine) (Mus musculus, UniProt Q9WVC8); assay: YFP oxalate/chloride exchange assay in FRT cells stably expressing murine SLC26A3; Transwell oxalate transport; type: cell-based
# 5-HT1A Human Serotonin = target: T1, 5-HT1A Human Serotonin (Homo sapiens, UniProt P08908); assay: biochemical; set-up: Eurofins SafetyScreen44 radioligand binding displacement, percent inhibition, duplicate; conditions: radioligand binding
# T1 construct: gene HTR1A
# T1 sequence (P08908 whole entry): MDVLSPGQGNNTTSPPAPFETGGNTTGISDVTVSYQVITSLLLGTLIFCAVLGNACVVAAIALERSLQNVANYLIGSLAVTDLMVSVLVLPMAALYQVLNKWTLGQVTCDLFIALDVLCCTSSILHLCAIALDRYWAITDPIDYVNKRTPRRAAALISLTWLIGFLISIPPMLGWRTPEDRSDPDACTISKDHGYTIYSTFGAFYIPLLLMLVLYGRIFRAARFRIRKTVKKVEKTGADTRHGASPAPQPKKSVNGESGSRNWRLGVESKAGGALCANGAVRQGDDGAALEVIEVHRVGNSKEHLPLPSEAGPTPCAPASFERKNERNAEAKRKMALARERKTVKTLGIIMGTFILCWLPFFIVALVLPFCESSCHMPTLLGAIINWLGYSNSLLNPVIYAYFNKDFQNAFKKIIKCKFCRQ
# Experimental: (§1) Possible off-target effects of DRAinh-A270 were investigated by panel screening (Eurofins SafetyScreen44). […] Testing for CYP450 and hERG inhibition also supported DRAinh-A270 safety (Supplemental Tables 2 and 3, respectively). Finally, metabolic stability of DRAinh-A270 was measured in mouse, rat, and human microsomes.
# 5-HT1B Human Serotonin = target: T2, 5-HT1B Human Serotonin (Homo sapiens, UniProt P28222); assay: biochemical; set-up: Eurofins SafetyScreen44 radioligand binding displacement, percent inhibition, duplicate; conditions: radioligand binding
# T2 construct: gene HTR1B
# Experimental: as §1
# 5-HT2A Human Serotonin = target: T3, 5-HT2A Human Serotonin (Homo sapiens, UniProt P28223); assay: biochemical; set-up: Eurofins SafetyScreen44 radioligand binding displacement, percent inhibition, duplicate; conditions: radioligand binding
# T3 construct: gene HTR2A
# Experimental: as §1
# 5-HT2B Human Serotonin = target: T4, 5-HT2B Human Serotonin (Homo sapiens, UniProt P41595); assay: biochemical; set-up: Eurofins SafetyScreen44 radioligand binding displacement, percent inhibition, duplicate; conditions: radioligand binding
# T4 construct: gene HTR2B
# Experimental: as §1
# 5-HT3 Human Serotonin = target: T5, 5-HT3 Human Serotonin (Homo sapiens, UniProt P46098); assay: biochemical; set-up: Eurofins SafetyScreen44 radioligand binding displacement, percent inhibition, duplicate; conditions: radioligand binding
# T5 construct: gene HTR3A
# T5 sequence (P46098 whole entry): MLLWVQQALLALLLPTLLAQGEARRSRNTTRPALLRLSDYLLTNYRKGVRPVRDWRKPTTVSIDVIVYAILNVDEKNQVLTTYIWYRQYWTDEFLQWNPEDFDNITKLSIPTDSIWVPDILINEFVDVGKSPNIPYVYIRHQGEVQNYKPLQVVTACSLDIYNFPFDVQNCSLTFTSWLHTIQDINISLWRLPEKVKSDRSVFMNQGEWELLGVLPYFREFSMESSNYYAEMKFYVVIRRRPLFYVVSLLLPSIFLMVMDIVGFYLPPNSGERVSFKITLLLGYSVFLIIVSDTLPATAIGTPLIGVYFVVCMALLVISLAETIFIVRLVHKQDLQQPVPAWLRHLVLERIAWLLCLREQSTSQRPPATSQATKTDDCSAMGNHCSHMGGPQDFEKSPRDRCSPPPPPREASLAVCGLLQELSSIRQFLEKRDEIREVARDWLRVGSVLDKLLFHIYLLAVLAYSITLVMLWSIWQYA
# Experimental: as §1
# A2A Human Adenosine = target: T6, A2A Human Adenosine (Homo sapiens, UniProt P29274); assay: biochemical; set-up: Eurofins SafetyScreen44 radioligand binding displacement, percent inhibition, duplicate; conditions: radioligand binding
# T6 construct: gene ADORA2A
# Experimental: as §1
# AR Human Androgen = AR Human Androgen (Homo sapiens, UniProt P10275); assay: biochemical; set-up: Eurofins SafetyScreen44 radioligand binding displacement, percent inhibition, duplicate; conditions: radioligand binding
# Experimental: as §1
# CB1 Human Cannabinoid = target: T7, CB1 Human Cannabinoid (Homo sapiens, UniProt P21554); assay: biochemical; set-up: Eurofins SafetyScreen44 radioligand binding displacement, percent inhibition, duplicate; conditions: radioligand binding
# T7 construct: gene CNR1
# T7 sequence (P21554 whole entry): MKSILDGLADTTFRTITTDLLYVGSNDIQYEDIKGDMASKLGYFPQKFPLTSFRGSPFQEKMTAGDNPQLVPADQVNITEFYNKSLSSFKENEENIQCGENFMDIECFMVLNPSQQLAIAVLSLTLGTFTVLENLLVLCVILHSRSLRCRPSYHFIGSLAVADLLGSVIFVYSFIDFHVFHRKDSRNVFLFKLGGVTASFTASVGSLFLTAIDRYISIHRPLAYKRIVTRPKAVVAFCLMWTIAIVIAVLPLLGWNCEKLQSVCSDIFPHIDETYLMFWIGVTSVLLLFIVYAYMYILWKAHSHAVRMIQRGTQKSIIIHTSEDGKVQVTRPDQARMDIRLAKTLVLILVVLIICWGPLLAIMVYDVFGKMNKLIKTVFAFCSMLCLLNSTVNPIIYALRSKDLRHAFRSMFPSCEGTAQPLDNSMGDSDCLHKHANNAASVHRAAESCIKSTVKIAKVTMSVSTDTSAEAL
# Experimental: as §1
# CB2 Human Cannabinoid = target: T8, CB2 Human Cannabinoid (Homo sapiens, UniProt P34972); assay: biochemical; set-up: Eurofins SafetyScreen44 radioligand binding displacement, percent inhibition, duplicate; conditions: radioligand binding
# T8 construct: gene CNR2
# Experimental: as §1
# [1] = target: T9, CCK1 (CCKA) Human Cholecystokinin (Homo sapiens, UniProt P32238); assay: biochemical; set-up: Eurofins SafetyScreen44 radioligand binding displacement, percent inhibition, duplicate; conditions: radioligand binding
# T9 construct: gene CCKAR
# Experimental: as §1
# D1 Human Dopamine = target: T10, D1 Human Dopamine (Homo sapiens, UniProt P21728); assay: biochemical; set-up: Eurofins SafetyScreen44 radioligand binding displacement, percent inhibition, duplicate; conditions: radioligand binding
# T10 construct: gene DRD1
# Experimental: as §1
# D2S Human Dopamine = target: T11, D2S Human Dopamine (Homo sapiens, UniProt P14416); assay: biochemical; set-up: Eurofins SafetyScreen44 radioligand binding displacement, percent inhibition, duplicate; conditions: radioligand binding
# T11 construct: gene DRD2; D2S short isoform
# Experimental: as §1
# [2] = target: T12, DAT Human Dopamine Transporter (Homo sapiens, UniProt Q01959); assay: biochemical; set-up: Eurofins SafetyScreen44 radioligand binding displacement, percent inhibition, duplicate; conditions: radioligand binding
# T12 construct: gene SLC6A3
# Experimental: as §1
# ETA Human Endothelin = target: T13, ETA Human Endothelin (Homo sapiens, UniProt P25101); assay: biochemical; set-up: Eurofins SafetyScreen44 radioligand binding displacement, percent inhibition, duplicate; conditions: radioligand binding
# T13 construct: gene EDNRA
# Experimental: as §1
# GR Human Glucocorticoid = target: T14, GR Human Glucocorticoid (Homo sapiens, UniProt P04150); assay: biochemical; set-up: Eurofins SafetyScreen44 radioligand binding displacement, percent inhibition, duplicate; conditions: radioligand binding
# T14 construct: gene NR3C1
# Experimental: as §1
# H1 Human Histamine = target: T15, H1 Human Histamine (Homo sapiens, UniProt P35367); assay: biochemical; set-up: Eurofins SafetyScreen44 radioligand binding displacement, percent inhibition, duplicate; conditions: radioligand binding
# T15 construct: gene HRH1
# Experimental: as §1
# H2 Human Histamine = target: T16, H2 Human Histamine (Homo sapiens, UniProt P25021); assay: biochemical; set-up: Eurofins SafetyScreen44 radioligand binding displacement, percent inhibition, duplicate; conditions: radioligand binding
# T16 construct: gene HRH2
# T16 sequence (P25021 whole entry): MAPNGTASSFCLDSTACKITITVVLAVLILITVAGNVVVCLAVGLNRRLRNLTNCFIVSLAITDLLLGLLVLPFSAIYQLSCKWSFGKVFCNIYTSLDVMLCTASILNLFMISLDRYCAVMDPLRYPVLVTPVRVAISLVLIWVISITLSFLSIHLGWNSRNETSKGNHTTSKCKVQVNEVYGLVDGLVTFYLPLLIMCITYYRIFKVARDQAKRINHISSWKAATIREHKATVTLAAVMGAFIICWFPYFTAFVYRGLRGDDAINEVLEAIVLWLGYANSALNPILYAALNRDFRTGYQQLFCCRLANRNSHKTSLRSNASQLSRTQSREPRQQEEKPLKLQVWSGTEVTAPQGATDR
# Experimental: as §1
# [3] = target: T17, M1 Human Acetylcholine (Muscarinic) (Homo sapiens, UniProt P11229); assay: biochemical; set-up: Eurofins SafetyScreen44 radioligand binding displacement, percent inhibition, duplicate; conditions: radioligand binding
# T17 construct: gene CHRM1
# Experimental: as §1
# [4] = target: T18, M2 Human Acetylcholine (Muscarinic) (Homo sapiens, UniProt P08172); assay: biochemical; set-up: Eurofins SafetyScreen44 radioligand binding displacement, percent inhibition, duplicate; conditions: radioligand binding
# T18 construct: gene CHRM2
# Experimental: as §1
# [5] = target: T19, M3 Human Acetylcholine (Muscarinic) (Homo sapiens, UniProt P20309); assay: biochemical; set-up: Eurofins SafetyScreen44 radioligand binding displacement, percent inhibition, duplicate; conditions: radioligand binding
# T19 construct: gene CHRM3
# Experimental: as §1
# [6] = target: T20, NET Human Norepinephrine Transporter (Homo sapiens, UniProt P23975); assay: biochemical; set-up: Eurofins SafetyScreen44 radioligand binding displacement, percent inhibition, duplicate; conditions: radioligand binding
# T20 construct: gene SLC6A2
# Experimental: as §1
# V1A Human Vasopressin = target: T21, V1A Human Vasopressin (Homo sapiens, UniProt P37288); assay: biochemical; set-up: Eurofins SafetyScreen44 radioligand binding displacement, percent inhibition, duplicate; conditions: radioligand binding
# T21 construct: gene AVPR1A
# Experimental: as §1
# [7] = target: T22, alpha1A Human Adrenoceptor (Homo sapiens, UniProt P35348); assay: biochemical; set-up: Eurofins SafetyScreen44 radioligand binding displacement, percent inhibition, duplicate; conditions: radioligand binding
# T22 construct: gene ADRA1A
# Experimental: as §1
# [8] = target: T23, alpha2A Human Adrenoceptor (Homo sapiens, UniProt P08913); assay: biochemical; set-up: Eurofins SafetyScreen44 radioligand binding displacement, percent inhibition, duplicate; conditions: radioligand binding
# T23 construct: gene ADRA2A
# Experimental: as §1
# beta1 Human Adrenoceptor = target: T24, beta1 Human Adrenoceptor (Homo sapiens, UniProt P08588); assay: biochemical; set-up: Eurofins SafetyScreen44 radioligand binding displacement, percent inhibition, duplicate; conditions: radioligand binding
# T24 construct: gene ADRB1
# Experimental: as §1
# beta2 Human Adrenoceptor = target: T25, beta2 Human Adrenoceptor (Homo sapiens, UniProt P07550); assay: biochemical; set-up: Eurofins SafetyScreen44 radioligand binding displacement, percent inhibition, duplicate; conditions: radioligand binding
# T25 construct: gene ADRB2
# Experimental: as §1
# delta (DOP) Human Opioid = target: T26, delta (DOP) Human Opioid (Homo sapiens, UniProt P41143); assay: biochemical; set-up: Eurofins SafetyScreen44 radioligand binding displacement, percent inhibition, duplicate; conditions: radioligand binding
# T26 construct: gene OPRD1
# T26 sequence (P41143 whole entry): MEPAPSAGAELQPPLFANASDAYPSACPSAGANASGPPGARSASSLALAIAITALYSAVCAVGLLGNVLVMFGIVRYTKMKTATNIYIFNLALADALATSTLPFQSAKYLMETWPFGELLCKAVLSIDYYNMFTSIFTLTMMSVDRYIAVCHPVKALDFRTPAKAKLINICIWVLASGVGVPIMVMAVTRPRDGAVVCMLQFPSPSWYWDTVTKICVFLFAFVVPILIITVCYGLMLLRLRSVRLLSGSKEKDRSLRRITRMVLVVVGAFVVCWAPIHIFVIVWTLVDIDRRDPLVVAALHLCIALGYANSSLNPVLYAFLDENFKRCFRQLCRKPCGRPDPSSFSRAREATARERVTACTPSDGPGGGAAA
# Experimental: as §1
# hERG = target: T27, hERG (Homo sapiens, UniProt Q12809); assay: in vitro; set-up: Eurofins SafetyScreen44 radioligand binding displacement, percent inhibition, duplicate; conditions: radioligand binding
# T27 construct: gene KCNH2
# Experimental: as §1
# kappa (KOP) Human Opioid = target: T28, kappa (KOP) Human Opioid (Homo sapiens, UniProt P41145); assay: biochemical; set-up: Eurofins SafetyScreen44 radioligand binding displacement, percent inhibition, duplicate; conditions: radioligand binding
# T28 construct: gene OPRK1
# Experimental: as §1
# mu (MOP) Human Opioid = target: T29, mu (MOP) Human Opioid (Homo sapiens, UniProt P35372); assay: biochemical; set-up: Eurofins SafetyScreen44 radioligand binding displacement, percent inhibition, duplicate; conditions: radioligand binding
# T29 construct: gene OPRM1
# T29 sequence (P35372 whole entry): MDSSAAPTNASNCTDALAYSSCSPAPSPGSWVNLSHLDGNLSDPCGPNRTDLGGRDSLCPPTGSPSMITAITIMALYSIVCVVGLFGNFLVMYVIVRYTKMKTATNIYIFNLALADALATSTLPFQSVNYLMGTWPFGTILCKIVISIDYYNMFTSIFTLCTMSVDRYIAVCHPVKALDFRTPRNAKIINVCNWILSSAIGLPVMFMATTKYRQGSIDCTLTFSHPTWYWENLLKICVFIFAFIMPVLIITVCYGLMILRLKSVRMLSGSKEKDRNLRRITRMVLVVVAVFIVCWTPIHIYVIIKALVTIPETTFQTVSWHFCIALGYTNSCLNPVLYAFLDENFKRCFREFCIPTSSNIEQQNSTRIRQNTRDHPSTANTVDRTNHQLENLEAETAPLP
# Experimental: as §1
# [9] = target: T30, nAChR (alpha4/beta2) Human Ion Channel (Homo sapiens, UniProt P17787+P43681); assay: biochemical; set-up: Eurofins SafetyScreen44 radioligand binding displacement, percent inhibition, duplicate; conditions: radioligand binding
# T30 construct: gene CHRNB2
# Experimental: as §1
# Acetylcholinesterase = target: T31, Acetylcholinesterase (Homo sapiens, UniProt P22303); assay: biochemical; set-up: Eurofins SafetyScreen44 enzymatic assay, percent inhibition, duplicate; conditions: enzymatic assay
# T31 construct: gene ACHE
# T31 sequence (P22303 whole entry): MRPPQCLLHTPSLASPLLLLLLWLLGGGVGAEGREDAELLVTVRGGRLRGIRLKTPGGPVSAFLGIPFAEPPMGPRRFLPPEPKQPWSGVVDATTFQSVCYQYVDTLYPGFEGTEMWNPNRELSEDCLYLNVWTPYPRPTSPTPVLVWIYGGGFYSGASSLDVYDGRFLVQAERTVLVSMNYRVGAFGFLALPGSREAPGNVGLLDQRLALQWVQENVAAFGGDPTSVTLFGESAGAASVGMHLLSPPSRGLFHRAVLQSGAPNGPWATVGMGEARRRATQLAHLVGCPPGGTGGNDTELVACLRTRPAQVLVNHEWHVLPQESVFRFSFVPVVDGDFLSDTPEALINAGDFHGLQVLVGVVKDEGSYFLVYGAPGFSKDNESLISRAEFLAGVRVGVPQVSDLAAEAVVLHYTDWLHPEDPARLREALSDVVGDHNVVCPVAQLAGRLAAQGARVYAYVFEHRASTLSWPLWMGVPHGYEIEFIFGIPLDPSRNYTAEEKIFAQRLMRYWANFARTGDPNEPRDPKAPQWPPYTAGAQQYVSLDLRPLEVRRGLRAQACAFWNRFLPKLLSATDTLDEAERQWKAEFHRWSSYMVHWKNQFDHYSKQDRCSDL
# Experimental: as §1
# [10] = target: T32, COX1 Human Cyclooxygenase (Homo sapiens, UniProt P23219); assay: biochemical; set-up: Eurofins SafetyScreen44 enzymatic assay, percent inhibition, duplicate; conditions: enzymatic assay
# T32 construct: gene PTGS1
# T32 sequence (P23219 whole entry): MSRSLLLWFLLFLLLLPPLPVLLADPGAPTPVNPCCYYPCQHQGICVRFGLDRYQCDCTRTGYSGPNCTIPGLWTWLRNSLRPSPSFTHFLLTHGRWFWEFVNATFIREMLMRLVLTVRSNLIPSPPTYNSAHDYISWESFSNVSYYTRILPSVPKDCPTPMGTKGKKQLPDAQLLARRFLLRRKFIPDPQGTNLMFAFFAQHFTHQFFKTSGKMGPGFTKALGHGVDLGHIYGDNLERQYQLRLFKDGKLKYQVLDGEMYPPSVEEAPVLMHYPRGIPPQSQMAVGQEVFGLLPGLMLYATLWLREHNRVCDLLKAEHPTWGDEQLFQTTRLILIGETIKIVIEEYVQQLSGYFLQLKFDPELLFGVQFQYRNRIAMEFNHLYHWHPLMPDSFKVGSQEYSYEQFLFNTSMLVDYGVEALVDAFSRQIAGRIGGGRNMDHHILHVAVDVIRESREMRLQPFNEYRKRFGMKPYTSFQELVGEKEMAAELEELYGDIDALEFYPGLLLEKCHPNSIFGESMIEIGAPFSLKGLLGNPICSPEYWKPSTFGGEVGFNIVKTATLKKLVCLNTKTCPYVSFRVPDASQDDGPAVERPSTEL
# Experimental: as §1
# [11] = target: T33, COX2 Human Cyclooxygenase (Homo sapiens, UniProt P35354); assay: biochemical; set-up: Eurofins SafetyScreen44 enzymatic assay, percent inhibition, duplicate; conditions: enzymatic assay
# T33 construct: gene PTGS2
# Experimental: as §1
# [12] = target: T34, Monoamine Oxidase A (MAO-A) (Homo sapiens, UniProt P21397); assay: biochemical; set-up: Eurofins SafetyScreen44 enzymatic assay, percent inhibition, duplicate; conditions: enzymatic assay
# T34 construct: gene MAOA
# Experimental: as §1
# [13] = target: PDE3A Human Phosphodiesterase (Homo sapiens, UniProt Q14432); assay: biochemical; set-up: Eurofins SafetyScreen44 enzymatic assay, percent inhibition, duplicate; conditions: enzymatic assay
# Chain of PDE3A Human Phosphodiesterase (Q14432 whole entry): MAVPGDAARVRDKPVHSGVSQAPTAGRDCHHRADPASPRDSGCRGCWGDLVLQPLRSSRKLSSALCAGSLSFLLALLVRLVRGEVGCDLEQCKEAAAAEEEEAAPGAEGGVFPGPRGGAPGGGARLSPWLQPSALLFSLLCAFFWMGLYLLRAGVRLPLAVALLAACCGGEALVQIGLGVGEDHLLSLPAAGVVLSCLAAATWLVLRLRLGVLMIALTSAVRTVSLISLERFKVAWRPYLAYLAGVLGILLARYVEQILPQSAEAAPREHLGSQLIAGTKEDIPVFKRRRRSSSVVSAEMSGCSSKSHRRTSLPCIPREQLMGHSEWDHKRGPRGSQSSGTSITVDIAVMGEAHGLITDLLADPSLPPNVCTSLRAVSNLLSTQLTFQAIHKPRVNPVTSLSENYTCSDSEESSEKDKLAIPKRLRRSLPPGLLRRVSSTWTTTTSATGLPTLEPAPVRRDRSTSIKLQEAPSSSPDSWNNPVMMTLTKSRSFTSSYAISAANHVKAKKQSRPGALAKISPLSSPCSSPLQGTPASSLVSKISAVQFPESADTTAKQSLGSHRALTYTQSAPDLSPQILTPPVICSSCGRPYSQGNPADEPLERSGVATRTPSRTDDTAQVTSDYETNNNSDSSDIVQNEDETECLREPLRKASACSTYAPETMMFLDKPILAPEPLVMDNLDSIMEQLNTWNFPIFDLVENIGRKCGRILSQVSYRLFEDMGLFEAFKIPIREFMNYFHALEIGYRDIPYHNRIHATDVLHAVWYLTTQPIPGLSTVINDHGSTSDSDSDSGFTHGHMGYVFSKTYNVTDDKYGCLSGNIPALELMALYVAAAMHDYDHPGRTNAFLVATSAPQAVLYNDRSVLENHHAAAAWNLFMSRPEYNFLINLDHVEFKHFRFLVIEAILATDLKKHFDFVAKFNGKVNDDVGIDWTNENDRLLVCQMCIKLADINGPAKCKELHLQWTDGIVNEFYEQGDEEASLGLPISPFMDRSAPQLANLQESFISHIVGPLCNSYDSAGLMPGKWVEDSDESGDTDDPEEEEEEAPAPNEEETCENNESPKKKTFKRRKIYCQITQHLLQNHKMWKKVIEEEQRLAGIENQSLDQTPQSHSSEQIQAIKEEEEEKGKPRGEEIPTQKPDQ
# Experimental: as §1
# [14] = target: T35, PDE4D2 Human Phosphodiesterase (Homo sapiens, UniProt Q08499); assay: biochemical; set-up: Eurofins SafetyScreen44 enzymatic assay, percent inhibition, duplicate; conditions: enzymatic assay
# T35 construct: gene PDE4D; PDE4D2 isoform
# Experimental: as §1
smiles,measurement,setting,value
"Cc1c(CC(=O)O)c(=O)oc2c(C)c(OCc3cccc(I)c3)ccc12 [4az (in ref. 19), DRAinh-A270]",pIC50,SLC26A3 (human),7.70
same,pIC50,SLC26A3 (murine),~7.22
same,inhibition at 10 µM,5-HT1A Human Serotonin,0%
same,inhibition at 10 µM,5-HT1B Human Serotonin,-1%
same,inhibition at 10 µM,5-HT2A Human Serotonin,17%
same,inhibition at 10 µM,5-HT2B Human Serotonin,64%
same,inhibition at 10 µM,5-HT3 Human Serotonin,-6%
same,inhibition at 10 µM,A2A Human Adenosine,46%
same,inhibition at 10 µM,AR Human Androgen,13%
same,inhibition at 10 µM,CB1 Human Cannabinoid,-3%
same,inhibition at 10 µM,CB2 Human Cannabinoid,-1%
same,inhibition at 10 µM,[1],-5%
same,inhibition at 10 µM,D1 Human Dopamine,13%
same,inhibition at 10 µM,D2S Human Dopamine,2%
same,inhibition at 10 µM,[2],-2%
same,inhibition at 10 µM,ETA Human Endothelin,13%
same,inhibition at 10 µM,GR Human Glucocorticoid,-7%
same,inhibition at 10 µM,H1 Human Histamine,27%
same,inhibition at 10 µM,H2 Human Histamine,-2%
same,inhibition at 10 µM,[3],9%
same,inhibition at 10 µM,[4],-3%
same,inhibition at 10 µM,[5],8%
same,inhibition at 10 µM,[6],29%
same,inhibition at 10 µM,V1A Human Vasopressin,-1%
same,inhibition at 10 µM,[7],5%
same,inhibition at 10 µM,[8],47%
same,inhibition at 10 µM,beta1 Human Adrenoceptor,14%
same,inhibition at 10 µM,beta2 Human Adrenoceptor,3%
same,inhibition at 10 µM,delta (DOP) Human Opioid,-3%
same,inhibition at 10 µM,hERG,19%
same,inhibition at 10 µM,kappa (KOP) Human Opioid,7%
same,inhibition at 10 µM,mu (MOP) Human Opioid,-5%
same,inhibition at 10 µM,[9],-3%
same,inhibition at 10 µM,Acetylcholinesterase,10%
same,inhibition at 10 µM,[10],-1%
same,inhibition at 10 µM,[11],15%
same,inhibition at 10 µM,[12],73%
same,inhibition at 10 µM,[13],4%
same,inhibition at 10 µM,[14],-2%
